Experimental data reported in US20250179047A1, “5-[7-(3,4-DIHYDRO-1H-ISOQUINOLINE-2-CARBONYL)-1,2,3,4 TETRAHYDROISOQUINOLIN-6-YL]-1H-PYRROLE-3-CARBOXAMIDE DERIVATIVES, PHARMACEUTICAL COMPOSITIONS CONTAINING THEM AND THEIR USES AS PRO-APOPTOTIC AGENTS” (LES LABORATOIRES SERVIER, priority 2022, published 2025).

Experiments:
BCL2 WT = BCL2 WT (Homo sapiens (Human), UniProt P10415); experiment: TR-FRET competitive binding assay, BCL2 WT; conditions: Ki determined from IC50, read-out: TR_FRET EKI_Bcl2 WT
Procedure, shortened: (§1)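 Terbium-labelled N-terminal Halo-fusion BCL2 or BCLXL (E. coli), 0.5 nM, competed against fluorescein-labelled PUMA peptide (2 or 20 nM) for 2 h at 23° C in 50 mM Hepes pH 7.5, 150 mM NaCl, 5% DMSO. TR-FRET 520/495 nm ratio gave IC50 by four-parameter fit; Ki derived from IC50.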

BCL2 G101V [1] = molecular target: BCL2 G101V (Homo sapiens, UniProt P10415, G101V); experiment: TR-FRET competitive binding assay, BCL2 G101V; conditions: BCL2 G101V; Ki determined from IC50; read-out: TR_FRET EKI_Bcl2 G101V
Procedure, shortened: as §1

BCL2 G101V [2] = experiment: TR-FRET competitive binding assay, BCL2 G101V; parameters: species or system human; conditions: ratio Ki BCL2 G101V / Ki BCL2 WT
Procedure, shortened: as §1

BCL2 D103Y = BCL2 D103Y (Homo sapiens, UniProt P10415, D103Y); experiment: TR-FRET competitive binding assay, BCL2 D103Y; conditions: Ki determined from IC50, read-out: TR_FRET EKI_Bcl2 D103Y
Procedure, shortened: as §1

BCLXL WT = BCLXL WT (Homo sapiens (Human), UniProt Q07817); experiment: TR-FRET competitive binding assay, BCLXL WT; conditions: for Ki: BCLXL WT, Ki determined from IC50, read-out: TR_FRET EKI BclxL; for TR_FRET EKI BCLxL/WT selectivty ratio: ratio Ki BCLxL / Ki BCL2 WT
BCLXL WT, sequence (Q07817 other isoform, or with tags, fused parts or gaps): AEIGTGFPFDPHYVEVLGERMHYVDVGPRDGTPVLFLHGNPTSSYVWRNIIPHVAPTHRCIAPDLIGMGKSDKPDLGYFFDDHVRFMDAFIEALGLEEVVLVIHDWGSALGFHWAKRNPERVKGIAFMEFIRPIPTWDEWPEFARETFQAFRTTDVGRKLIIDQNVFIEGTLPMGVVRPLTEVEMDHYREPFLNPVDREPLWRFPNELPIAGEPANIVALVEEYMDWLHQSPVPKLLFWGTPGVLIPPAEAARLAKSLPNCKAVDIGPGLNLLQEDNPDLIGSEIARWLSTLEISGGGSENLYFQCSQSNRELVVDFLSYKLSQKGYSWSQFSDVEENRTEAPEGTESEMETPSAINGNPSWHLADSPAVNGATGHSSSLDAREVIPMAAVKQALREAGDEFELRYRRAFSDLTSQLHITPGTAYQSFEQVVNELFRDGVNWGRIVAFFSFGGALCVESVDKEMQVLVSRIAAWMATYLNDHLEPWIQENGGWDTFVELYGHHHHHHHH
Procedure, shortened: as §1

KMS-12-PE Bcl-2 WT = experiment: In vitro cytotoxicity CellTiter-Glo 48 h, KMS-12-PE Bcl-2 WT; assay type: cell-based; conditions: Homo sapiens, KMS-12-PE, C50 = concentration needed to reach 50% of the cellular viability
Procedure, shortened: (§2)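 Transduce KMS-12-PE with Bcl-2 WT or G101V lentivirus, then FACS-sort RFP-positive cells. Add compounds in an 11-point dilution series and incubate 48 h at 37 °C. Measure ATP-based luminescence with CellTiter-Glo and derive C50 (50% viability).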

KMS-12-PE Bcl-2 G101V = experiment: In vitro cytotoxicity CellTiter-Glo 48 h, KMS-12-PE Bcl-2 G101V; assay type: cell-based; conditions: for Ratio (G101V/WT): C50 KMS-12-PE Bcl-2 G101V over C50 KMS-12-PE Bcl-2 WT; for IC50: Homo sapiens, KMS-12-PE, 48 h, CellTiter-Glo, C50 = concentration needed to reach 50% of the cellular viability
Procedure, shortened: as §2

SMILES	Ki (BCL2 WT) [nM]	Ki (BCL2 G101V [1]) [nM]	TR_FRET EKI G101V/WT selectivty ratio (BCL2 G101V [2])	Ki (BCL2 D103Y) [nM]	Ki (BCLXL WT) [nM]	TR_FRET EKI BCLxL/WT selectivty ratio (BCLXL WT)	IC50 (KMS-12-PE Bcl-2 WT) [µM]	Ratio (G101V/WT) (KMS-12-PE Bcl-2 G101V)	IC50 (KMS-12-PE Bcl-2 G101V) [µM]
Cc1c(N(C(=O)c2cc(-c3cc4c(cc3C(=O)N3Cc5ccccc5C[C@H]3CN3CCCCC3)CN(C(=O)Cc3ccc(OCCN5CCC(F)(F)C5)cc3)CC4)n(C)c2C)c2ccc(O)cc2)cc(C#N)n1C [Example 82, N-(5-cyano-1,2-dimethylpyrrol-3-yl)-5-[2-(2-{4-[2-(3,3-difluoropyrrolidin-1-yl)ethoxy]phenyl}acetyl)-7-{[(3S)-3-(piperidin-1-ylmethyl)-3,4-dihydro-1H-isoquinolin-2-yl]carbonyl}-3,4-dihydro-1H-isoquinolin-6-yl]-N-(4-hydroxyphenyl)-1,2-dimethylpyrrole-3-carboxamide]	0.19	1.2	6.7	0.35	6.3	33.9	0.0095	6.45	0.0572
Cc1c(N(C(=O)c2cc(-c3cc4c(cc3C(=O)N3Cc5ccccc5C[C@H]3CN3CCCCC3)CN(C(=O)Cc3cc(F)c(OCCN5CCOCC5)cc3F)CC4)n(C)c2C)c2ccc(O)cc2)cc(C#N)n1C [Example 83, N-(5-cyano-1,2-dimethylpyrrol-3-yl)-5-[2-(2-{2,5-difluoro-4-[2-(morpholin-4-yl)ethoxy]phenyl}acetyl)-7-{[(3S)-3-(piperidin-1-ylmethyl)-3,4-dihydro-1H-isoquinolin-2-yl]carbonyl}-3,4-dihydro-1H-isoquinolin-6-yl]-N-(4-hydroxyphenyl)-1,2-dimethylpyrrole-3-carboxamide]	0.09	0.9	10.9	0.21	9.3	109.4	0.0125	8.1	0.0958
Cc1c(C(=O)N(c2ccc(O)cc2)c2cnn(C)c2)cc(-c2cc3c(cc2C(=O)N2Cc4ccccc4C[C@H]2C)CN(C(=O)Cc2ccc(OCCC4CCOCC4)cc2)CC3)n1C [Example 85, N-(4-hydroxyphenyl)-1,2-dimethyl-5-(7-{[(3R)-3-methyl-3,4-dihydro-1H-isoquinolin-2-yl]carbonyl}-2-(2-{4-[2-(oxan-4-yl)ethoxy]phenyl}acetyl)-3,4-dihydro-1H-isoquinolin-6-yl)-N-(1-methylpyrazol-4-yl)pyrrole-3-carboxamide]	0.32	1.1	3.3	0.39	9.8	30.6	0.0061	8.42	0.051
Cc1c(N(C(=O)c2cc(-c3cc4c(cc3C(=O)N3Cc5ccccc5C[C@H]3CN3CCCCC3)CN(C(=O)Cc3ccc(OCCN(C)C5CC5)cc3F)CC4)n(C)c2C)c2ccc(O)cc2)cc(C#N)n1C [Example 88, N-(5-cyano-1,2-dimethylpyrrol-3-yl)-5-{2-[2-(4-{2-[cyclopropyl(methyl)amino]ethoxy}-2-fluorophenyl)acetyl]-7-{[(3S)-3-(piperidin-1-ylmethyl)-3,4-dihydro-1H-isoquinolin-2-yl]carbonyl}-3,4-dihydro-1H-isoquinolin-6-yl}-N-(4-hydroxyphenyl)-1,2-dimethylpyrrole-3-carboxamide]	0.1	0.6	5.9	0.27	1.7	17.0	0.0063	4.67	0.0296
Cc1c(C(=O)N(c2ccc(O)cc2)c2ccc3c(cnn3C)c2)cc(-c2cc3c(cc2C(=O)N2Cc4ccccc4C[C@H]2C)CN(C(=O)Cc2ccc(OCCN4CCOCC4)cc2)CC3)n1C [Example 90, N-(4-hydroxyphenyl)-1,2-dimethyl-5-(7-{[(3R)-3-methyl-3,4-dihydro-1H-isoquinolin-2-yl]carbonyl}-2-(2-{4-[2-(morpholin-4-yl)ethoxy]phenyl}acetyl)-3,4-dihydro-1H-isoquinolin-6-yl)-N-(1-methylindazol-5-yl)pyrrole-3-carboxamide]	0.25	0.8	3.4	0.88	4.5	18.0	0.0111	5.92	0.0657
Cc1c(N(C(=O)c2cc(-c3cc4c(cc3C(=O)N3Cc5ccccc5C[C@H]3CN3CCCCC3)CN(C(=O)Cc3ccc(OCCN5CCOCC5)cc3F)CC4)n(C)c2C)c2ccccc2)cc(C#N)n1C [Example 92, N-(5-cyano-1,2-dimethyl-pyrrol-3-yl)-5-[2-[2-[2-fluoro-4-(2-morpholinoethoxy)phenyl]acetyl]-7-[(3S)-3-(1-piperidylmethyl)-3,4-dihydro-1H-isoquinoline-2-carbonyl]-3,4-dihydro-1H-isoquinolin-6-yl]-1,2-dimethyl-N-phenyl-pyrrole-3-carboxamide]	0.03	0.9	30.7	0.11	8.5	303.6	0.0085	11.7	0.0974
Cc1c(N(C(=O)c2cc(-c3cc4c(cc3C(=O)N3Cc5ccccc5C[C@H]3C)CN(C(=O)Cc3ccc(OCCN5CCOC6(CC6)C5)cc3)CC4)n(C)c2C)c2ccc(O)cc2)cc(C#N)n1C [Example 93, N-(5-cyano-1,2-dimethyl-1H-pyrrol-3-yl)-N-(4-hydroxyphenyl)-1,2-dimethyl-5-{7-[(3R)-3-methyl-1,2,3,4-tetrahydroisoquinoline-2-carbonyl]-2-{2-[4-(2-{4-oxa-7-azaspiro[2.5]octan-7-yl}ethoxy)phenyl]acetyl}-1,2,3,4-tetrahydroisoquinolin-6-yl}-1H-pyrrole-3-carboxamide]	0.19	1.1	5.5	0.34	2.4	12.6	0.0053	3.45	0.0182
Cc1c(C(=O)N(c2ccc(O)cc2)c2cc(C#N)n(C(F)F)c2C)cc(-c2cc3c(cc2C(=O)N2Cc4ccccc4C[C@H]2C)CN(C(=O)Cc2ccc(OCCN4CCOCC4)cc2F)CC3)n1C [Example 94, N-[5-cyano-1-(difluoromethyl)-2-methylpyrrol-3-yl]-5-[2-(2-{2-fluoro-4-[2-(morpholin-4-yl)ethoxy]phenyl}acetyl)-7-{[(3R)-3-methyl-3,4-dihydro-1H-isoquinolin-2-yl]carbonyl}-3,4-dihydro-1H-isoquinolin-6-yl]-N-(4-hydroxyphenyl)-1,2-dimethylpyrrole-3-carboxamide]	0.22	1.1	5.0	0.66	3.3	15.0	0.0032	3.31	0.0107
Cc1c(C(=O)N(c2ccc(O)cc2)c2cc(C#N)n(C(F)F)c2C)cc(-c2cc3c(cc2C(=O)N2Cc4ccccc4C[C@H]2C)CN(C(=O)Cc2ccc(OCCN4CCOCC4)cc2)CC3)n1C [Example 95, N-[5-cyano-1-(difluoromethyl)-2-methylpyrrol-3-yl]-N-(4-hydroxyphenyl)-1,2-dimethyl-5-(7-{[(3R)-3-methyl-3,4-dihydro-1H-isoquinolin-2-yl]carbonyl}-2-(2-{4-[2-(morpholin-4-yl)ethoxy]phenyl}acetyl)-3,4-dihydro-1H-isoquinolin-6-yl)pyrrole-3-carboxamide]	0.18	0.6	3.2	0.46	3.9	21.7	0.0048	4.11	0.0196
Cc1c(N(C(=O)c2cc(-c3cc4c(cc3C(=O)N3Cc5ccccc5C[C@H]3CN3CCCC3)CN(C(=O)Cc3ccc(OCCC5CCOCC5)cc3)CC4)n(C)c2C)c2ccc(O)cc2)cc(C#N)n1C [Example 99, N-(5-cyano-1,2-dimethylpyrrol-3-yl)-N-(4-hydroxyphenyl)-1,2-dimethyl-5-[2-(2-{4-[2-(oxan-4-yl)ethoxy]phenyl}acetyl)-7-{[(3S)-3-(pyrrolidin-1-ylmethyl)-3,4-dihydro-1H-isoquinolin-2-yl]carbonyl}-3,4-dihydro-1H-isoquinolin-6-yl]pyrrole-3-carboxamide]	0.05	0.3	5.2	0.14	2.8	52.8	0.0105	7.27	0.0763
